Like-named read-outs stand apart in the source and are kept apart here.
Assays:
ISOC1 = target: T1, ISOC1 (Homo sapiens, UniProt Q96CN7); test: Competition binding assay in cell lysate, affinity matrix, MS; settings: ISOC1, read-out: IC50
T1 construct: endogenous in cells
T1 sequence (Q96CN7 1-298): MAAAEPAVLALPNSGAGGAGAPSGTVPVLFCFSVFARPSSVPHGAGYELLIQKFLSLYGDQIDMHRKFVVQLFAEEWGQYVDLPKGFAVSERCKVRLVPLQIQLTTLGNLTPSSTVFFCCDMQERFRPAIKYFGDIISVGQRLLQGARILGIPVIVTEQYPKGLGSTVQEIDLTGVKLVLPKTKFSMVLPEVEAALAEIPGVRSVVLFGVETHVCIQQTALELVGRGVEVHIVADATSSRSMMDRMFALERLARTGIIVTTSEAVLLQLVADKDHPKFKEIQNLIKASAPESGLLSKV

WDR5 = target: T2, WDR5 (Homo sapiens, UniProt P61964); test: as above; settings: WDR5; K-562 cell lysate
T2 construct: endogenous in cells

GPS2 = settings: Molt-4 cell lysate
ISOC2 = target: T3, ISOC2 (Homo sapiens, UniProt Q96AB3); test: Competition binding assay in cell lysate, affinity matrix, MS; settings: ISOC2; K-562 cell lysate
T3 construct: endogenous in cells

PPP4C = target: T4, PPP4C (Homo sapiens, UniProt P60510); test: as above; settings: PPP4C, read-out: IC50
T4 construct: endogenous in cells
T4 sequence (P60510 1-307): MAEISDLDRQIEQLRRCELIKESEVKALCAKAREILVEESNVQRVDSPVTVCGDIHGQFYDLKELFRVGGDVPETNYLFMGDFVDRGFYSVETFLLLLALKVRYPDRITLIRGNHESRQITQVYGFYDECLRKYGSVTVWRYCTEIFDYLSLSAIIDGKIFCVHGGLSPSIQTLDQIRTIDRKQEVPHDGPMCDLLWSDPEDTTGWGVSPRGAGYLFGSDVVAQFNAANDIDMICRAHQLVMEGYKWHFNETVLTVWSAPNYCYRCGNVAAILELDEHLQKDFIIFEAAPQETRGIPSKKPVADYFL

[1] = test system: histone acetylation, K562 cells; test: Mapping of histone acetylation by LC-MS/MS of K562 cells treated with HDACi; type: cell-based, human; settings: K562 cells treated 6 hours, isobaric tagging and MS/MS
RBBP7 = test: Competition binding assay in cell lysate, affinity matrix, MS (Sin3/Mi2-NuRD interactor)
BZW2 = target: T5, BZW2 (Homo sapiens, UniProt Q9Y6E2); test: Competition binding assay in cell lysate, affinity matrix, MS; settings: BZW2, read-out: IC50
T5 construct: endogenous in cells
T5 sequence (Q9Y6E2 1-419): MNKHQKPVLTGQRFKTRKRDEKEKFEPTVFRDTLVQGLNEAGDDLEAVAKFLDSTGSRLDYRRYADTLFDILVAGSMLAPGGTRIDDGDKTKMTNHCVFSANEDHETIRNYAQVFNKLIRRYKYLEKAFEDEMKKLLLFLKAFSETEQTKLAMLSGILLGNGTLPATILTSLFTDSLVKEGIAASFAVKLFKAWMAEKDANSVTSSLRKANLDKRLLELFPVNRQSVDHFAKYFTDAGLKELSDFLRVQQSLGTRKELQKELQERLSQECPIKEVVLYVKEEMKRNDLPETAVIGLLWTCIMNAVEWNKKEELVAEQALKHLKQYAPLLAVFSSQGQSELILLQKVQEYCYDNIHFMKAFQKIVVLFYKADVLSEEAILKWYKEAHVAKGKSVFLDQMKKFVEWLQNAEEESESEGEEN

GATAD2A = test: Competition binding assay in cell lysate, affinity matrix, MS (Mi-2/NuRD interactor)
TBL1X = settings: K-562 cell lysate
Sin3 complex = test: Chemoproteomic binding profiling, K562 cell extract, SAHA/ITF2357 probe matrix (Kd app); design: species or system human
MTA3 = test: Competition binding assay in cell lysate, affinity matrix, MS (Mi-2/NuRD interactor); settings: K-562 cell lysate
ALDH2 = target: T6, ALDH2 (Homo sapiens, UniProt P05091); test: Competition binding assay in cell lysate, affinity matrix, MS; settings: ALDH2, read-out: IC50
T6 construct: endogenous in cells
T6 sequence (P05091 18-517): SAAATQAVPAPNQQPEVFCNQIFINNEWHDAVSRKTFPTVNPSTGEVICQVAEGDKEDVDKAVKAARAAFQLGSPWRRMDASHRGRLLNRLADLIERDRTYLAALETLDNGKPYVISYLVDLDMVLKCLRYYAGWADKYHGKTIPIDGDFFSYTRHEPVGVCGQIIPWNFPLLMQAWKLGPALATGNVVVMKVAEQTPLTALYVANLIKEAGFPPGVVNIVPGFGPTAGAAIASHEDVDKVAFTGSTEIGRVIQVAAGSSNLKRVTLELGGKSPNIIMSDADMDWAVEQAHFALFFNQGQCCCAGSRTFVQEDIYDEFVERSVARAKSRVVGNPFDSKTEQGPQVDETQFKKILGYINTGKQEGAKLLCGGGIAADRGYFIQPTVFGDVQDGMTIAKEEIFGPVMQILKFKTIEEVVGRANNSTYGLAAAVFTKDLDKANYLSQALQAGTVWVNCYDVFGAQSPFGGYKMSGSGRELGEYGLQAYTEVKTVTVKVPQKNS

NuRD complex = test: Chemoproteomic binding profiling, K562 cell extract, SAHA/ITF2357 probe matrix (Kd app); design: species or system human
CoREST complex = test: as above; design: species or system human; settings: read-out: Kd^app GSE1
DNTTIP1 = test: Competition binding assay in cell lysate, affinity matrix, MS; settings: K-562 cell lysate
MTA2 = test: Competition binding assay in cell lysate, affinity matrix, MS (Mi-2/NuRD interactor)
MTA1 = test: as above; design: species or system human; settings: Molt-4 cell lysate
HSPD1 = target: T7, HSPD1 (Homo sapiens, UniProt P10809); test: Competition binding assay in cell lysate, affinity matrix, MS; settings: HSPD1, read-out: IC50
T7 construct: endogenous in cells

MBD3 = test: Competition binding assay in cell lysate, affinity matrix, MS (Mi-2/NuRD interactor)
GATAD2B = test: as above

T7 sequence (P10809 27-573): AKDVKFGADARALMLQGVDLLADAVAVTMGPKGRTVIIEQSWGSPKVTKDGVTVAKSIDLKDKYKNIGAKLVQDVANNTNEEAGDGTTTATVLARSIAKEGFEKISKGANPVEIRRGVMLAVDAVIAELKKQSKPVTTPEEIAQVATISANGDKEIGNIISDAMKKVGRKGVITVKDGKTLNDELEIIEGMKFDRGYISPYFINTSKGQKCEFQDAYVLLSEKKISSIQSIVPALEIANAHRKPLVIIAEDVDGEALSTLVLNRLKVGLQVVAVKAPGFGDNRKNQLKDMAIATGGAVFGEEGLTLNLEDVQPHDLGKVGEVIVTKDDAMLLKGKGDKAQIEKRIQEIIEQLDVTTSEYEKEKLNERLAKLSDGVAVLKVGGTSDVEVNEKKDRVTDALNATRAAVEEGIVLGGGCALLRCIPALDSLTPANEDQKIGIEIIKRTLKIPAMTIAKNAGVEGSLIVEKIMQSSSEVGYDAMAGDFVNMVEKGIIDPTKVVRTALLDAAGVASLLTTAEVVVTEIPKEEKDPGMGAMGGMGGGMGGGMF
T3 sequence (Q96AB3 whole entry): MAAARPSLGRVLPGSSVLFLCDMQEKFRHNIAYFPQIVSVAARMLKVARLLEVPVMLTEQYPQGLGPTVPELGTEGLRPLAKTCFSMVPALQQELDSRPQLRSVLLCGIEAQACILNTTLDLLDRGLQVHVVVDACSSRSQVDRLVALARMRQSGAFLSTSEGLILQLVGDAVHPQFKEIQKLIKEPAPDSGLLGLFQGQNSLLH

CC(/C=C/C(=O)NO)=C\[C@@H](C)C(=O)c1ccc(N(C)C)cc1 [Trichostatin A]
IC50 (ISOC1; K-562 cell lysate): 3000 nM | IC50 (ISOC1; Molt-4 cell lysate): 3000 nM | IC50 (WDR5): 420 nM | IC50 (GPS2): 100 nM | IC50 (ISOC2): 3000 nM | IC50 (PPP4C; K-562 cell lysate): 3000 nM | IC50 (PPP4C; Molt-4 cell lysate): 3000 nM | IC50 (TBL1XR1; K-562 cell lysate): 70 nM | IC50 (TBL1XR1; Molt-4 cell lysate): 70 nM | abundance of acetylated histone peptides (in words) [1]: pronounced abundance of hyperacetylated histone peptides | IC50 (RBBP7; K-562 cell lysate): 180 nM | IC50 (RBBP7; Molt-4 cell lysate): 120 nM | IC50 (BZW2; K-562 cell lysate): 2790 nM | IC50 (BZW2; Molt-4 cell lysate): 2450 nM | IC50 (GATAD2A; K-562 cell lysate): 60 nM | IC50 (GATAD2A; Molt-4 cell lysate): 40 nM | IC50 (TBL1X): 50 nM | Kd (Sin3 complex; protein SAP30, read-out: Kd^app SAP30): 30 nM | Kd (Sin3 complex; protein SIN3A, read-out: Kd^app SIN3A): 30 nM | Kd (Sin3 complex; protein SIN3B, read-out: Kd^app SIN3B): 30 nM | IC50 (MTA3): 60 nM | IC50 (ALDH2; K-562 cell lysate): 3000 nM | IC50 (ALDH2; Molt-4 cell lysate): 3000 nM | Kd (NuRD complex; read-out: Kd^app CHD4): 60 nM | Kd (NuRD complex; read-out: Kd^app GATAD2B): 30 nM | Kd (NuRD complex; read-out: Kd^app MTA1): 120 nM | Kd (CoREST complex): 4 nM | IC50 (DNTTIP1): 50 nM | IC50 (MTA2; K-562 cell lysate): 70 nM | IC50 (MTA2; Molt-4 cell lysate): 60 nM | IC50 (MTA1): 60 nM | IC50 (HSPD1; K-562 cell lysate): 3000 nM | IC50 (HSPD1; Molt-4 cell lysate): 3000 nM | IC50 (MBD3; K-562 cell lysate): 50 nM | IC50 (MBD3; Molt-4 cell lysate): 40 nM | IC50 (GATAD2B; K-562 cell lysate): 60 nM | IC50 (GATAD2B; Molt-4 cell lysate): 60 nM

From US20130071854A1, “METHODS FOR THE IDENTIFICATION AND CHARACTERIZATION OF HDAC INTERACTING COMPOUNDS” (priority 2009, published 2013)
